“And” between values parts separate entries of the source, which are not always exact repeats. Equal entries are not always repeated. Inconclusive results are not listed.
Test system: nude mice, HT29 intrarenal xenograft, tumor weight T/C
Assay: NCI In Vivo Anticancer Drug Screen. Data for tumor model HT29;CX-1 Human Adenocarcinoma (MER+) (intrarenal inoculation) in NU/NU Swiss (nude) mice
Conditions: endpoint: mean tumor weight change, higher = larger tumour
Description: The antitumor activity of compounds was measured in mice bearing transplantable tumors. Survival or tumor size were measured and the results are expressed as the measurement made in the treated group (T) divided by the measurement made in the vehicle treated control group (C). The tumor model used in this assay is HT29;CX-1 Human Adenocarcinoma (MER+) (intrarenal inoculation) in NU/NU Swiss (nude) mice

[1] = dose: 200.0 mg/kg/injection, schedule: Q04DX004 (sc), vehicle: Klucel (hydroxypropylcellulose) (HPC)
[2] = dose: 400.0 mg/kg/injection, schedule: Q04DX004 (sc), vehicle: Klucel (hydroxypropylcellulose) (HPC)
[3] = dose: 800.0 mg/kg/injection, schedule: Q04DX004 (sc), vehicle: Klucel (hydroxypropylcellulose) (HPC)
[4] = dose: 150.0 mg/kg/injection, schedule: Q04DX004 (sc), vehicle: saline
[5] = dose: 300.0 mg/kg/injection, schedule: Q04DX004 (sc), vehicle: saline

O=c1[nH]c(=O)c2nc(-c3cccnc3)cnc2[nH]1
T/C (dose: 100.0 mg/kg/injection, schedule: Q04DX004 (sc), vehicle: Klucel (hydroxypropylcellulose) (HPC)): 68 % of control
T/C [1]: 85 % of control
T/C [2]: 102 % of control
T/C [3]: 77 % of control

C=C1C(=O)C2=CC1CCC(=O)C1(C)CCC(OC(C)=O)C(C)(C)C1CC2O (configuration not stated)
T/C (dose: 60.0 mg/kg/injection, schedule: Q04DX004 (sc), vehicle: Klucel (hydroxypropylcellulose) (HPC)): 91 % of control
T/C (dose: 120.0 mg/kg/injection, schedule: Q04DX004 (sc), vehicle: Klucel (hydroxypropylcellulose) (HPC)): 116 % of control

COc1cccc2c1C(=O)c1c(O)c3c(c(O)c1C2=O)C[C@@](O)(/C(CO)=N/NC(=O)c1ccc(Cl)c(Cl)c1)C[C@@H]3OC1CC(N)C(O)C(C)O1 (some centres not stated)
T/C (dose: 4.0 mg/kg/injection, schedule: Q01DX010 (sc), vehicle: water): 226 % of control
T/C (dose: 8.0 mg/kg/injection, schedule: Q01DX010 (sc), vehicle: water): 88 % of control
T/C (dose: 20.0 mg/kg/injection, schedule: Q04DX004 (sc), vehicle: water): 113 % of control
T/C (dose: 40.0 mg/kg/injection, schedule: Q04DX004 (sc), vehicle: water): 59 % of control

O=C(O[Si](Cc1ccccc1)(Cc1ccccc1)Cc1ccccc1)N(CCCl)CCCl
T/C (dose: 100.0 mg/kg/injection, schedule: Q04DX004 (sc), vehicle: saline with Tween-80): 119 % of control
T/C (dose: 200.0 mg/kg/injection, schedule: Q04DX004 (sc), vehicle: saline with Tween-80): 121 % of control

CCCCCCCCCCCCCCCCCCOCC(COP(=O)([O-])OCC[N+](C)(C)C)OC (configuration not stated)
T/C (dose: 37.5 mg/kg/injection, schedule: Q04DX004 (sc), vehicle: saline): 98 % of control
T/C (dose: 75.0 mg/kg/injection, schedule: Q04DX004 (sc), vehicle: saline): 77 % of control
T/C [4]: 50 % of control

CC(=O)OC1C(O)C(C)OC(OC2C(OC(=O)C3CCC4C(C3)OC3(CC(OC(=O)/C=C/c5ccccc5)C(C)CO3)C43CO3)OC(C)C(O)C2OC(C)=O)C1O (configuration not stated)
T/C (dose: 15.0 mg/kg/injection, schedule: Q04DX004 (sc), vehicle: distilled water + Tween-80): 100 % of control
T/C (dose: 30.0 mg/kg/injection, schedule: Q04DX004 (sc), vehicle: distilled water + Tween-80): 62 % of control
T/C (dose: 60.0 mg/kg/injection, schedule: Q04DX004 (sc), vehicle: distilled water + Tween-80): 61 % of control
T/C (dose: 120.0 mg/kg/injection, schedule: Q04DX004 (sc), vehicle: distilled water + Tween-80): 91 % of control

c1cc[c]([Sn]([NH]c2ncnc3[nH]cnc23)([NH]c2ncnc3[nH]cnc23)[c]2ccccc2)cc1
T/C (dose: 150.0 mg/kg/injection, schedule: Q04DX004 (sc), vehicle: suspension in saline): 89 % of control
T/C (dose: 300.0 mg/kg/injection, schedule: Q04DX004 (sc), vehicle: suspension in saline): 47 % of control
T/C (dose: 600.0 mg/kg/injection, schedule: Q04DX004 (sc), vehicle: suspension in saline): 28 % of control
T/C (dose: 1200.0 mg/kg/injection, schedule: Q04DX004 (sc), vehicle: suspension in saline): 124 % of control

Cc1noc(N)c1N
T/C (dose: 100.0 mg/kg/injection, schedule: Q04DX004 (sc), vehicle: water): 200 % of control
T/C (dose: 400.0 mg/kg/injection, schedule: Q04DX004 (sc), vehicle: water): 98 % of control
T/C (dose: 800.0 mg/kg/injection, schedule: Q04DX004 (sc), vehicle: water): 200 % of control

C1CC[N-]CC1.C1CC[N-]CC1.C1CC[N-]CC1.[Cl][Rh]([Cl])[Cl]
T/C [4]: 36 % of control
T/C [5]: 25 % of control

Cc1cc(NCCN(C(C)C)C(C)C)nc(/N=C(\N)Nc2ccc(Cl)c(C(F)(F)F)c2)n1
T/C (dose: 20.0 mg/kg/injection, schedule: Q04DX004 (sc), vehicle: Klucel (hydroxypropylcellulose) (HPC)): 62 % of control
T/C (dose: 40.0 mg/kg/injection, schedule: Q04DX004 (sc), vehicle: Klucel (hydroxypropylcellulose) (HPC)): 51 % of control
T/C (dose: 80.0 mg/kg/injection, schedule: Q04DX004 (sc), vehicle: Klucel (hydroxypropylcellulose) (HPC)): 78 % of control
T/C (dose: 160.0 mg/kg/injection, schedule: Q04DX004 (sc), vehicle: Klucel (hydroxypropylcellulose) (HPC)): 62 % of control

O=C(O)CSc1c(Cl)c(=O)oc2ccc(Cl)cc12
T/C (dose: 300.0 mg/kg/injection, schedule: Q04DX004 (sc), vehicle: Klucel (hydroxypropylcellulose) (HPC)): 99 % of control

OCCOCC(F)(F)F
T/C [5]: 67 % of control
T/C (dose: 600.0 mg/kg/injection, schedule: Q04DX004 (sc), vehicle: saline): 91 % of control
T/C (dose: 1200.0 mg/kg/injection, schedule: Q04DX004 (sc), vehicle: saline): 100 % of control
T/C (dose: 2400.0 mg/kg/injection, schedule: Q04DX004 (sc), vehicle: saline): 58 % of control

S=C(Nc1ccc(Cl)c(Cl)c1)N1c2ccccc2-n2cccc2C1c1cccnc1 (configuration not stated)
T/C [1]: 52 % of control
T/C [2]: 114 % of control
T/C [3]: 83 % of control

CC(C)=CC(=O)OC1C2C(C)=CC(=O)C(O)C2(C)C2C3(O)OCC24C(CC(=O)OC14)C(C)C3O (configuration not stated)
T/C (dose: 1.25 mg/kg/injection, schedule: Q04DX004 (sc), vehicle: distilled water + Tween-80): 67 % of control and 76 % of control
T/C (dose: 1.25 mg/kg/injection, schedule: Q04DX004 (sc), vehicle: saline with Tween-80): 70 % of control
T/C (dose: 5.0 mg/kg/injection, schedule: Q04DX004 (sc), vehicle: saline with Tween-80): 44 % of control

Nc1cc2[nH]cnc2c(=O)[nH]1
T/C (dose: 25.0 mg/kg/injection, schedule: Q01DX010 (sc), vehicle: saline): 62 % of control
T/C (dose: 50.0 mg/kg/injection, schedule: Q01DX010 (sc), vehicle: saline): 112 % of control

CC1(CO)C(O)CCC2(C)C1CCC1CC3CC12CCC3(O)CO (configuration not stated)
T/C (dose: 50.0 mg/kg/injection, schedule: Q01DX010 (sc), vehicle: saline with Tween-80): 50 % of control and 65 % of control
T/C (dose: 100.0 mg/kg/injection, schedule: Q01DX010 (sc), vehicle: saline with Tween-80): 69 % of control
T/C (dose: 200.0 mg/kg/injection, schedule: Q01DX010 (sc), vehicle: saline with Tween-80): 65 % of control

CNC(=O)c1cccc2c(Nc3ccc(NS(C)(=O)=O)cc3OC)c3cccc(C)c3nc12
T/C (dose: 50.0 mg/kg/injection, schedule: Q04DX004 (sc), vehicle: other): 72 % of control
T/C (dose: 100.0 mg/kg/injection, schedule: Q04DX004 (sc), vehicle: other): 39 % of control

COC(=O)C(N)Cc1ccc(O)c(O)c1 (configuration not stated)
T/C (dose: 225.0 mg/kg/injection, schedule: Q04DX004 (sc), vehicle: saline): 74 % of control
T/C (dose: 450.0 mg/kg/injection, schedule: Q04DX004 (sc), vehicle: saline): 104 % of control
T/C (dose: 900.0 mg/kg/injection, schedule: Q04DX004 (sc), vehicle: saline): 77 % of control
T/C (dose: 1800.0 mg/kg/injection, schedule: Q04DX004 (sc), vehicle: saline): 55 % of control

O=c1cnn(C2OC(CO)C(O)C2O)c(=O)[nH]1 (configuration not stated)
T/C (dose: 200.0 mg/kg/injection, schedule: Q01DX010 (sc), vehicle: saline): 71 % of control
T/C (dose: 400.0 mg/kg/injection, schedule: Q01DX010 (sc), vehicle: saline): 100 % of control
T/C (dose: 800.0 mg/kg/injection, schedule: Q01DX010 (sc), vehicle: saline): 97 % of control
T/C (dose: 1600.0 mg/kg/injection, schedule: Q01DX010 (sc), vehicle: saline): 34 % of control

C[C@]12C=CC(=O)C=C1CC[C@@H]1[C@@H]2[C@@H](O)C[C@@]2(C)[C@H]1CC[C@]2(O)C(=O)CO
T/C (dose: 12.5 mg/kg/injection, schedule: Q01DX010 (sc), vehicle: Klucel (hydroxypropylcellulose) (HPC)): 79 % of control
T/C (dose: 25.0 mg/kg/injection, schedule: Q01DX010 (sc), vehicle: Klucel (hydroxypropylcellulose) (HPC)): 112 % of control
T/C (dose: 50.0 mg/kg/injection, schedule: Q01DX010 (sc), vehicle: Klucel (hydroxypropylcellulose) (HPC)): 66 % of control
T/C (dose: 100.0 mg/kg/injection, schedule: Q01DX010 (sc), vehicle: Klucel (hydroxypropylcellulose) (HPC)): 83 % of control

COC1OC(CO)C(O)C(NC(=O)N(C)N=O)C1O (configuration not stated)
T/C (dose: 225.0 mg/kg/injection, schedule: Q04DX004 (sc), vehicle: suspension in saline): 104 % of control
T/C (dose: 450.0 mg/kg/injection, schedule: Q04DX004 (sc), vehicle: suspension in saline): 95 % of control
T/C (dose: 900.0 mg/kg/injection, schedule: Q04DX004 (sc), vehicle: suspension in saline): 33 % of control

O=C1C=C2C(=CCOC2O)O1 (configuration not stated)
T/C (dose: 2.0 mg/kg/injection, schedule: Q04DX004 (sc), vehicle: Klucel (hydroxypropylcellulose) (HPC)): 53 % of control
T/C (dose: 4.0 mg/kg/injection, schedule: Q04DX004 (sc), vehicle: Klucel (hydroxypropylcellulose) (HPC)): 87 % of control

Reference: PubChem BioAssay AID206 (DTP/NCI, 2004)
